ChEMBL document CHEMBL5233281, “Design, synthesis and biological evaluation of novel 1,3,4,9-tetrahydropyrano[3,4-b]indoles as potential treatment of triple negative breast cancer by suppressing PI3K/AKT/mTOR pathway” (Bioorg Med Chem, 2021)
The source made the active and inactive calls. The calls are words filed in the database; no cut-off is given here.

Columns and labels:
A549 = test: Antiproliferative activity against human A549 cells assessed as inhibition of cell growth incubated for 72 hrs by CCK8 assay; format: functional, cell-based; conditions: A549, 72 h
BGC-823 = test: Antiproliferative activity against human BGC-823 cells assessed as inhibition of cell growth incubated for 72 hrs by CCK8 assay; format: functional, cell-based; conditions: BGC-823, 72 h
PC-3 = test: Antiproliferative activity against human PC-3 cells assessed as inhibition of cell growth incubated for 72 hrs by CCK8 assay; format: functional, cell-based; conditions: PC-3, 72 h
MCF7 = test: Antiproliferative activity against human MCF7 cells assessed as inhibition of cell growth incubated for 72 hrs by CCK8 assay; format: functional, cell-based; conditions: MCF7, 72 h
[1] = Antiproliferative activity against human MCF-10A cells assessed as inhibition of cell growth incubated for 72 hrs by CCK8 assay; format: toxicity, cell-based
MDA-MB-231 [2] = test: Antiproliferative activity against human MDA-MB-231 cells assessed as inhibition of cell growth measured after 24 to 96 hrs by CCK8 assay; format: functional, cell-based; conditions: dose 1-4 µM, time 24-96 hrs
MDA-MB-231 [3] = test: Induction of cell cycle arrest in human MDA-MB-231 cells assessed as accumulation of cells at G0/G1 phase at 1 uM incubated for 48 hrs by PI staining based flow cytometry (reference value: 48.33%); format: functional
MDA-MB-231 [4] = test: Induction of cell cycle arrest in human MDA-MB-231 cells assessed as accumulation of cells at G0/G1 phase at 2 uM incubated for 48 hrs by PI staining based flow cytometry (reference value: 48.33%); format: functional
MDA-MB-231 [5] = test: Induction of cell cycle arrest in human MDA-MB-231 cells assessed as accumulation of cells at G0/G1 phase at 4 uM incubated for 48 hrs by PI staining based flow cytometry (reference value: 48.33%); format: functional
MDA-MB-231 [6] = test: Induction of cell cycle arrest in human MDA-MB-231 cells assessed as downregulation of Cyclin D1 protein expression at 1 to 4 uM incubated for 48 hrs by western blot analysis; format: functional, cell-based; conditions: dose 1-4 µM
MDA-MB-231 [7] = test: Induction of apoptosis in human MDA-MB-231 cells assessed as increase in apoptotic cells at 1 uM incubated for 48 hrs by AnnexinV-FITC/PI staining based flow cytometry (reference value: 5.24%); format: functional
MDA-MB-231 [8] = test: Induction of apoptosis in human MDA-MB-231 cells assessed as increase in apoptotic cells at 4 uM incubated for 48 hrs by AnnexinV-FITC/PI staining based flow cytometry (reference value: 5.24%); format: functional
MDA-MB-231 [9] = test: Induction of apoptosis in human MDA-MB-231 cells assessed as increase in apoptotic cells at 2 uM incubated for 24 hrs by AnnexinV-FITC/PI staining based flow cytometry (reference value: 5.24%); format: functional
MDA-MB-231 [10] = test: Induction of apoptosis in human MDA-MB-231 cells assessed as increase in apoptotic cells at 2 uM incubated for 72 hrs by AnnexinV-FITC/PI staining based flow cytometry (reference value: 5.24%); format: functional
MDA-MB-231 [11] = test: Induction of apoptosis in human MDA-MB-231 cells assessed as increase in Bax protein expression measured after 48 hrs by western blot analysis; format: functional, cell-based; conditions: dose 1-4 µM
MDA-MB-231 [12] = test: Induction of apoptosis in human MDA-MB-231 cells assessed as increase in cleaved caspase-9 protein expression at 1 to 4 uM incubated for 48 hrs by western blot analysis; format: functional, cell-based; conditions: dose 1-4 µM
MDA-MB-231 [13] = test: Induction of apoptosis in human MDA-MB-231 cells assessed as increase in cleaved caspase-8 protein expression at 1 to 4 uM incubated for 48 hrs by western blot analysis; format: functional, cell-based; conditions: dose 1-4 µM
MDA-MB-231 [14] = test: Induction of apoptosis in human MDA-MB-231 cells assessed as increase in cleaved caspase-3 protein expression at 1 to 4 uM incubated for 48 hrs by western blot analysis; format: functional, cell-based; conditions: dose 1-4 µM
MDA-MB-231 [15] = test: Induction of mitochondrial membrane potential depolarization in human MDA-MB-231 cells assessed as decrease in ratio of red to green fluorescence intensity at 1 to 4 uM incubated for 24 hrs by JC-1 staining based flow cytometry; format: functional, cell-based; conditions: dose 1-4 µM
MDA-MB-231 [16] = test: Induction of reactive oxygen species generation in human MDA-MB-231 cells incubated for 24 hrs by DCFH-DA staining based flow cytometry; format: functional, cell-based; conditions: dose 1-4 µM
MDA-MB-231 [17] = test: Induction of reactive oxygen species generation in human MDA-MB-231 cells at 1 uM incubated for 24 hrs by DCFH-DA staining based flow cytometry; format: functional, cell-based
MDA-MB-231 [18] = test: Induction of reactive oxygen species generation in human MDA-MB-231 cells at 2 uM incubated for 24 hrs by DCFH-DA staining based flow cytometry relative to control; format: functional
MDA-MB-231 [19] = test: Induction of reactive oxygen species generation in human MDA-MB-231 cells at 4 uM incubated for 24 hrs by DCFH-DA staining based flow cytometry; format: functional, cell-based
MDA-MB-231 [20] = test: Depletion of intracellular GSH content in human MDA-MB-231 cells at 2 uM incubated for 48 hrs relative to control; format: functional
MDA-MB-231 [21] = test: Increase in intracellular Ca2+ level in human MDA-MB-231 cells at 1 to 4 uM incubated for 48 hrs by Fluo-4AM dye based flow cytometry; format: functional, cell-based; conditions: dose 1-4 µM
MDA-MB-231 [22] = test: Downregulation of PI3K protein expression in human MDA-MB-231 cells incubated for 48 hrs by western blot analysis; format: functional, cell-based; conditions: dose 1-4 µM
MDA-MB-231 [23] = test: Downregulation of mTOR protein expression in human MDA-MB-231 cells incubated for 48 hrs by western blot analysis; format: functional, cell-based; conditions: dose 1-4 µM
[24] = Inhibition of PI3K/Akt/mTOR signaling in human MDA-MB-231 cells assessed as reduction in Akt phosphorylation at Ser473 residue incubated for 48 hrs by western blot analysis; format: cell-based; conditions: dose 1-4 µM
[25] = Inhibition of PI3K/Akt/mTOR signaling in human MDA-MB-231 cells assessed as reduction in Akt phosphorylation at Thr308 residue incubated for 48 hrs by western blot analysis; format: cell-based; conditions: dose 1-4 µM
[26] = Inhibition of PI3K/Akt/mTOR signaling in human MDA-MB-231 cells assessed as reduction in mTOR phosphorylation at Ser2448 residue incubated for 48 hrs by western blot analysis; format: cell-based; conditions: dose 1-4 µM
[27] = Inhibition of PI3K/Akt/mTOR signaling in human MDA-MB-231 cells assessed as upregulation of PTEN expression incubated for 48 hrs by western blot analysis; format: cell-based; conditions: dose 1-4 µM
MDA-MB-231 [28] = test: Downregulation of PI3K protein expression in human MDA-MB-231 cells at 2 uM incubated for 72 hrs in presence of IGF-1 by western blot analysis; format: functional, cell-based
MDA-MB-231 [29] = test: Downregulation of Akt protein expression in human MDA-MB-231 cells at 2 uM incubated for 72 hrs in presence of IGF-1 by western blot analysis; format: functional, cell-based
[30] = Inhibition of PI3K/Akt/mTOR signaling in human MDA-MB-231 cells assessed as reduction in Akt phosphorylation at Ser473 residue at 2 uM incubated for 72 hrs in presence of IGF-1 by western blot analysis; format: cell-based
[31] = Inhibition of PI3K/Akt/mTOR signaling in human MDA-MB-231 cells assessed as reduction in mTOR phosphorylation at Ser2448 residue at 2 uM incubated for 72 hrs by western blot analysis; format: cell-based
[32] = Inhibition of PI3K/Akt/mTOR signaling in human MDA-MB-231 cells assessed as reduction in mTOR phosphorylation at Ser2481 residue at 2 uM incubated for 72 hrs by western blot analysis; format: cell-based

- IC50 (A549): 14.8 µM
- IC50 (BGC-823): 9.11 µM
- IC50 (PC-3): 9.04 µM
- IC50 (MCF7): 7.89 µM
SMILES: Fc1cc(F)cc(C2OCCc3c2[nH]c2ccccc32)c1 (stereo unspecified)
- IC50 at 72 h [1]: 24.6 µM
- Activity (MDA-MB-231 [2]): Dose-Dependent Effect
- Activity (MDA-MB-231 [3]): 54.33%
- Activity (MDA-MB-231 [4]): 64%
- Activity (MDA-MB-231 [5]): 66.67%
- Activity (MDA-MB-231 [6]): Active
- Activity (MDA-MB-231 [7]): 16.77%
- Activity (MDA-MB-231 [8]): 37.86%
- Activity (MDA-MB-231 [9]): 13.14%
- Activity (MDA-MB-231 [10]): 31.34%
- Activity (MDA-MB-231 [11]): Dose-Dependent Effect
- Activity (MDA-MB-231 [12]): Active
- Activity (MDA-MB-231 [13]): Active
- Activity (MDA-MB-231 [14]): Active
- Activity (MDA-MB-231 [15]): Active
- Activity (MDA-MB-231 [16]): Dose-Dependent Effect
- Activity (MDA-MB-231 [17]): inactive
- fold change (FC) (MDA-MB-231 [18]): 1.73
- Activity (MDA-MB-231 [19]): Active
- fold change (FC) (MDA-MB-231 [20]): 0.63
- Activity (MDA-MB-231 [21]): Active
- inhibition (MDA-MB-231 [22]): Dose-Dependent Effect
- inhibition (MDA-MB-231 [23]): Dose-Dependent Effect
- inhibition [24]: Dose-Dependent Effect
- inhibition [25]: Dose-Dependent Effect
- inhibition [26]: Dose-Dependent Effect
- inhibition [27]: Dose-Dependent Effect
- inhibition (MDA-MB-231 [28]): inactive
- inhibition (MDA-MB-231 [29]): inactive
- inhibition [30]: inactive
- inhibition [31]: inactive
- inhibition [32]: inactive
